Source: US20260091078A1, “OLIGOPEPTIDE THAT INHIBITS ANGIOGENESIS AND VASCULAR FUNCTION” (UNIVERSIDAD NACIONAL AUTONOMA DE MEXICO, priority 2019, published 2026)

Legend:
interleukin-1α (IL-1α) = assay: Expression of vasoinhibin target gene IL-1α mRNA in BUVEC E6E7 (qPCR); assay type: cell-based, bovine; conditions: BUVEC E6E7, 100 nM, 4 hours
Experimental: Vasoinhibin induces the expression of a variety of genes via the activation of NF-KB to promote angiostatic and inflammatory effects. In particular, interleukin-1 alpha (IL-1α) and the intercellular adhesion molecule 1 (ICAM1) are vasoinhibin gene targets in the bovine endothelial cells. To evaluate the ability of the oligopeptide […] to induce the expression of IL-1α and ICAM1, BUVEC […] cells were seeded on 12 well plates with F12K-10% FBS, grown to 80% confluency, and starved with low serum (0.1% FBS) culture medium for 24 h. […] After 4 hours the RNA was extracted from the cells using Trizol (Invitrogen, Carlsbad, CA) and retrotranscribed using the High Capacity cDNA Reverse Transcription Kit (Applied Biosystems, Foster City, CA). The RT-PCR products were quantified in a Maxima SYBRgreen qPCR (Thermo Fisher Scientific) 10 μl final volume reaction mixture containing the template and 0.25 μM of each primer. The PCR amplification was done in the CFX96 Real Time PCR (BioRad), comprising a 10-minute denaturalization at 95° C., followed by 35 amplification cycles (95° C. for 10 sec, 58° C. for 30 sec, and 72° C. for 30 sec). […] The PCR data was analyzed by the 2^-ΔΔCT method and the threshold of the cycles (CT) was normalized by the constitutive housekeeping gene cyclophilin A (PPIA). […]

BUVEC E6E7 = assay: Vasopermeability in vitro: transendothelial electrical resistance (TEER); assay type: cell-based, bovine; conditions: BUVEC E6E7 monolayer, 100 nM, 50 ng ml^-1 VEGF, up to 120 minutes
Experimental: Another conventional protocol to evaluate vasopermeability is the measurement of the transendothelial electrical resistance (TEER), which uses a device that applies an electric current through electrodes at both sides of the endothelial cell monolayer. […] The effect of the oligopeptide THGRGFI on endothelial cell permeability was evaluated by measuring TEER. BUVEC E6E7 were seeded in the TEER device at a density of 10,000 cells cm^−2. After three days, the monolayers were starved in low serum media (0.1% FBS) for 48 hours and after this time, 100 nM of vasoinhibin or of the oligopeptide were added to the upper compartment (luminal surface of the monolayer) for 1 hour. At time 0, TEER was recorded and 50 ng ml^−1 of VEGF were added to the luminal side. The TEER was measured at 10, 20, 30, 60, 90 and 120 minutes. Determinations were performed with the Epithelial Volt/Ohm (TEER) EVOM2 equipment (World Precision Instruments, FL, USA) with a 4 mm ‘chopstick’ electrode. Values were normalized relative to a device with no cells and a monolayer without treatment.

Ac-THGRGFI-NH2 [THGRGFI, Thr His Gly Arg Gly Phe Ile]
fold-change of expression of IL-1α mRNA versus non-treated control (interleukin-1α (IL-1α)): ~30 fold
effect on VEGF-induced reduction of transendothelial resistance (TEER) (BUVEC E6E7): block the VEGF effect
